{"source": "the CATMoS acute toxicity set (Mansouri et al. 2021)", "origin": "cited, not measured here", "note": "“And” between values parts separate entries of the source, which are not always exact repeats. Identical values can stand only once."}
{"experiment": "rat acute oral toxicity", "settings": "in vivo", "description": "[…]The data set underlying the modeling effort for this project was initially compiled by NICEATM and U.S. EPA’s CCTE. Briefly, LD50 data were collected from rat acute oral systemic toxicity tests, including limit tests, ranges/confidence intervals, and discrete LD50 values. The full data set included 21,200 LD50 entries for 15,688 substances. […] Data were reviewed to ensure that LD50 values with obvious errors in the extracted data such as unit conversion errors (e.g., comma and decimal separator misplacements) were either fixed or removed. After this review, 16,209 LD50 values remained. Many of the chemicals represented had multiple LD50 entries, requiring that a single representative value per Chemical Abstracts Service Registry Number (CASRN) identifier be defined to facilitate modeling efforts. Based on ATWG feedback and to define the representative LD50 as a protective value while accounting for the distribution across multiple LD50s, the median of the lowest quartile was computed using only discrete LD50 values (omitting limit test data and range and confidence interval data). A detailed summary of the data compilation is available online on the NICEATM webpage dedicated to the collaborative modeling project (NTP 2020).\n[…][…] For categorical designations, limit test and range/confidence interval LD50 data were integrated wherever possible. As such, the number of chemicals with end point values/calls varies across the modeling end points (Table 3) based on whether chemicals had representative LD50 values and/or other data. If a chemical had both, the representative value was used to determine categorical calls rather than limit test data. Some data were useable only for certain end points and categories depending on the thresholds. For example, ranges that spanned multiple hazard categories were considered only for the binary (very toxic/nontoxic) end points and omitted from rendering a determination for hazard category assignment.\n[…]The final data set comprising 11,992 chemicals was split into training and evaluation sets […], respectively. This process was performed semirandomly by ordering chemicals based on the five end points (categorical and continuous LD50 values) and partitioning every fourth record into the evaluation set accordingly. This approach was taken to ensure an equivalent distribution of the LD50 values and the different hazard categories between the training and the evaluation sets without supervised sampling of the chemicals based on structures (Figure 1A). The sources of the chemical structures were also kept equivalent between the two sets, with chemical structures obtained from DSSTox, being the highest quality, representing over 75% of each set (Figure 1B)."}
{"smiles": "Clc1ccc(N2N=N[C@@H]3[C@@H]4C[C@@H]([C@H]5N=N[C@@H]45)[C@@H]32)cc1", "LD50": "261 mg/kg"}
{"smiles": "O=C1CSC(=S)N1", "LD50": "320 mg/kg"}
{"smiles": "C=CCc1ccccc1", "LD50": "5540 mg/kg"}
{"smiles": "O=Cc1ccc(O)cc1", "LD50": "2250 mg/kg"}
{"smiles": "O=C(CCCN1CCN2Cc3[nH]c4ccccc4c3CC2C1)c1ccc(F)cc1", "note": "(centres undefined)", "LD50": "700 mg/kg"}
{"smiles": "CCCCCCCCCCCCOC(CBr)c1ccc(C(C)C)cc1", "note": "(centres undefined)", "LD50": "250 mg/kg"}
{"smiles": "C=CCN(CC=C)c1ccc(OC(=O)NC)cc1", "LD50": "86.8 mg/kg"}
{"smiles": "CC1N=C(N)CC1c1ccccc1", "note": "(centres undefined)", "LD50": "420 mg/kg"}
{"smiles": "CC(=O)CCCO", "LD50": "6400 mg/kg"}
{"smiles": "CCNC(=S)NCC", "LD50": "316 mg/kg"}
{"smiles": "Cc1nccnc1N1CCCCC1", "LD50": "730 mg/kg"}
{"smiles": "CC(Br)(CCl)CBr", "note": "(centres undefined)", "LD50": "780 mg/kg"}
{"smiles": "CCCCOc1ccc(C(CN(C)C)C(C)CC)cc1Cl", "note": "(centres undefined)", "LD50": "1050 mg/kg"}
{"smiles": "COCC(O)Cn1ccnc1[N+](=O)[O-]", "note": "(centres undefined)", "LD50": "2130 mg/kg"}
{"smiles": "CCCCCCCCCCCC(=O)NP(=O)(OC)SC", "note": "(centres undefined)", "LD50": "100 mg/kg"}
{"smiles": "CC(O)CNC(C)(C)Cc1ccc(Cl)cc1", "note": "(centres undefined)", "LD50": "150 mg/kg"}
{"smiles": "N#CN", "LD50": "1620 mg/kg"}
{"smiles": "COC(=O)C1=C(C)NC(C)=C(C(=O)OCCN(C)Cc2ccccc2)C1c1cccc([N+](=O)[O-])c1", "note": "(centres undefined)", "LD50": "184 mg/kg and 320 mg/kg"}
{"smiles": "N#CC(O)c1cccc(Oc2ccccc2)c1", "note": "(centres undefined)", "LD50": "800 mg/kg"}
{"smiles": "O=S1(=O)CC=CC1", "LD50": "2550 mg/kg"}
{"smiles": "C=CCNCC=C", "LD50": "578 mg/kg"}
{"smiles": "CCCN(CCC)C(=O)C(CCC(=O)NCCCOC(=O)Cc1c(C)n(C(=O)c2ccc(Cl)cc2)c2ccc(OC)cc12)NC(=O)c1ccccc1", "note": "(centres undefined)", "LD50": "370 mg/kg"}
{"smiles": "CN(C)CCC1(c2ccccc2)C=Cc2ccccc21", "note": "(centres undefined)", "LD50": "385 mg/kg"}
{"smiles": "Brc1ccc2[nH]cc(CC3CCNCC3)c2c1", "LD50": "25 mg/kg"}
{"smiles": "C=C(C)c1ccc(C(C)(C)N=C=O)cc1", "LD50": "4400 mg/kg"}
{"smiles": "c1ccc2c(NC3=NCCS3)cccc2c1", "LD50": "50 mg/kg"}
{"smiles": "Nc1ccc(O)c(C(=O)O)c1", "LD50": "2800 mg/kg"}
{"smiles": "CCc1oc2ccccc2c1C(=O)c1cc(Br)c(O)c(Br)c1", "LD50": "248 mg/kg"}
{"smiles": "CC(C)=CC1C(C(=O)OCc2cccc(Oc3ccccc3)c2)C1(C)C", "note": "(centres undefined)", "LD50": "500 mg/kg"}
{"smiles": "C[Si]1(C)OCCN(CCO)CCO1", "LD50": "3400 mg/kg"}
{"smiles": "Cc1ccc(CC(C)N)cc1", "note": "(centres undefined)", "LD50": "150 mg/kg"}
{"smiles": "CC1=C(C(=O)OCOC(=O)C(C)(C)C)N2C(=O)[C@@H](NC(=O)C(N)c3ccccc3)[C@H]2SC1", "note": "(some centres undefined)", "LD50": "4000 mg/kg"}
{"smiles": "CCOP(=O)(OCC)SCC", "LD50": "27 mg/kg"}
{"smiles": "CCN[C@H](C)Cc1cccc(C(F)(F)F)c1", "LD50": "195 mg/kg"}
{"smiles": "C[C@]12CC[C@@H]3c4ccc(OC(=O)N(CCCl)CCCl)cc4CC[C@H]3[C@@H]1CC[C@@H]2OP(=O)(O)O", "LD50": "5400 mg/kg"}
{"smiles": "CCOCOC(=O)c1ccccc1Nc1c(Cl)ccc(C)c1Cl", "LD50": "307 mg/kg"}
{"smiles": "CCC=CCC=CCC=CCC=CCC=CCC=CCCC(=O)O", "LD50": "10000 mg/kg"}
{"smiles": "CC(C)OC(C)C", "LD50": "8470 mg/kg"}
{"smiles": "CCN(CC)c1ccc(N=Nc2ccc(S(=O)(=O)N(C)C)cc2)c(S(=O)(=O)NCC[n+]2ccccc2)c1", "LD50": "5120 mg/kg"}
{"smiles": "CC(=O)Nc1ccc(OC(=O)c2ccccc2OC(C)=O)cc1", "LD50": "3500 mg/kg"}
{"smiles": "CCS(=O)CCSP(=S)(OC)OC", "note": "(centres undefined)", "LD50": "100 mg/kg"}
{"smiles": "CNc1nc(C)nc(OC)n1", "LD50": "394 mg/kg"}
{"smiles": "ClC(Cl)(Cl)Sn1cccn1", "LD50": "350 mg/kg"}
{"smiles": "O=C(O)/C=C\\Cl", "LD50": "320 mg/kg"}
{"smiles": "CCCN(N=O)C(N)=O", "LD50": "480 mg/kg"}
{"smiles": "O=C(NC1CCN(CCc2c[nH]c3ccccc23)CC1)c1ccccc1", "LD50": "1800 mg/kg"}
{"smiles": "C[C@H](O)[C@H](O)[C@H]1CNc2[nH]c(N)nc(=O)c2N1", "LD50": "1000 mg/kg"}
{"smiles": "NCCN1CCNCC1", "LD50": "2140 mg/kg"}
{"smiles": "CN(C)C(=O)Nc1ccc(SC(F)(F)Cl)c(Cl)c1", "LD50": "336 mg/kg"}
{"smiles": "O=C(OC1CC2CCC(C1)[N+]21CCCC1)C(O)(c1ccccc1)c1ccccc1", "note": "(centres undefined)", "LD50": "1500 mg/kg"}
{"smiles": "O=c1[nH]c2ccccc2c(=O)n1CCCN1CCN(c2cccc(Cl)c2)CC1", "LD50": "7650 mg/kg"}
{"smiles": "O=CNc1ccc(Br)cc1", "LD50": "1120 mg/kg"}
{"smiles": "CN1CCC[C@@H]1CCO[C@](C)(c1ccccc1)c1ccc(Cl)cc1", "LD50": "3550 mg/kg"}
{"smiles": "CC1NC(=O)c2cc(N)ccc2O1", "note": "(centres undefined)", "LD50": "1420 mg/kg"}
{"smiles": "CCN(CCCl)c1ccccc1", "LD50": "616 mg/kg"}
{"smiles": "CCCCCCCCCCCCOS(=O)(=O)O", "LD50": "1300 mg/kg"}
{"smiles": "NC1Cc2ccccc2C1", "LD50": "326 mg/kg"}
{"smiles": "CCN(CC)CCOC(=O)c1cccnc1", "LD50": "8400 mg/kg"}
{"smiles": "Oc1c(Cl)cc(Cl)c(Cl)c1Cc1c(O)c(Cl)cc(Cl)c1Cl", "LD50": "59.2 mg/kg"}
